We go through 1 compound from US8003668B2, “Amino-substituted 8-N-benzimidazoles and methods for their use in blood sugar disorders” (Sanofi-Aventis, priority 2005, dated 2011).

SMILES strings stand for the structures.

The target in this experiment is T1, DPP-IV from porcine kidneys (Sus scrofa, UniProt P22411).
T1 construct: DPP-IV from porcine kidneys (Sigma, Munich); purchased Sigma, Munich; host or cells: porcine kidney (tissue-derived enzyme)
As to the kind of experiment: Measurement of the DPP-IV activity (fluorimetric, H-Ala-Pro-AFC substrate). Type of experiment: biochemical. The conditions noted are these: inhibitor at 30 μm; H-Ala-Pro-AFC 15 μm; DPP-IV 1 mU/ml; Tris/HCl pH 7.4; room temperature. The method, then: The efficacy of the compounds was tested as follows: • Measurement of the DPP-IV Activity: • Material: • DPP-IV from porcine kidneys (Sigma, Munich) • H-Ala-Pro-AFC (Bachem, Weil am Rhein) • Test conditions: • DPP-IV (1 mU/ml, end concentration) • H-Ala-Pro-AFC (15 μm end concentration) in Tris/HCl (40 mM, pH 7.4), total volume 0.2 ml
The reaction was performed at room temperature for different periods (typically 10 minutes) and stopped at the end of the reaction by adding 20 μl of ZnCl2 (1 M). The conversion of H-Ala-Pro-AFC was determined fluorimetrically by measuring the emission at 535 nm on excitation at 405 nm. In the case of addition of inhibitors, the buffer volume added was adjusted such that a total volume of the test mixture of 200 μl was maintained.
% inhibition at a fixed concentration was calculated as follows: (1−enzyme activityinhibited reaction/enzyme activityuninhibited reaction)×100
IC50 values for inhibitors were determined by varying the inhibitor concentrations at the given substrate concentration of 15 μM. Ki and Km values were determined by corresponding variation of substrate and inhibitor concentration as described (Dixon, M. and Webb, E.C.(1979) Enzymes, third edition, pp. 47-206, Academic Press). […]

T1 sequence (P22411 whole entry): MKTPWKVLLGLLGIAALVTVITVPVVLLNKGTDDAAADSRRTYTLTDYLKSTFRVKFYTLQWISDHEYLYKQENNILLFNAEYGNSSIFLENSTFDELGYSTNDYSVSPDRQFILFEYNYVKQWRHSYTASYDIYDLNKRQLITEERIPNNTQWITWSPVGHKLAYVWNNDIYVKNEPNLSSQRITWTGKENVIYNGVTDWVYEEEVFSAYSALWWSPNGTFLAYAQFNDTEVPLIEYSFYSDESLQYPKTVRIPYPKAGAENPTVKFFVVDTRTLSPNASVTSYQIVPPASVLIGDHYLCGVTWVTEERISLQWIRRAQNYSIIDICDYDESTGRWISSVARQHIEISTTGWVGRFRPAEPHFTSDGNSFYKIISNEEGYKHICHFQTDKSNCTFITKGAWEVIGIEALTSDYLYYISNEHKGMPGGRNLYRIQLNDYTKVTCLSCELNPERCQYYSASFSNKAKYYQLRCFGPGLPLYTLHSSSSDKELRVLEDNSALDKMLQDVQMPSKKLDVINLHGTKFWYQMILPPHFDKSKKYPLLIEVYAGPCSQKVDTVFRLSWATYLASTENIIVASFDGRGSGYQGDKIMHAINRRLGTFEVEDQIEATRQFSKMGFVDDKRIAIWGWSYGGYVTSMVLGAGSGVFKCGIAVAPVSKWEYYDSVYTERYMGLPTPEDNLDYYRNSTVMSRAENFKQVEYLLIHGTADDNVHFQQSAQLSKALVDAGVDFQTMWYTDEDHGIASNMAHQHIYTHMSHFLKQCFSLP

Broadly, the % inhibition is how much of the control response was suppressed. For the compound `CC(C)=CCn1c(N2CCC[C@@H](N)C2)nc2ccc(NS(=O)(=O)c3ccccc3)cc21.O=C(O)C(F)(F)F` [Example 1, R-N-[2-(3-R-Aminopiperidin-1-yl)-1-(3-methylbut-2-enyl)-1H-benzimidazol-6-yl]-benzenesulfonamide trifluoroacetic acid salt], the “% inhibition at 30 μm” value is 56%.
